From patent publication US10626148B2, “Glycopeptides conjugates and uses thereof” (priority 2015, dated 2020)
Read-outs that look alike come from different tables or passages of the source.

Assays:
[1] = tested on: meropenem-resistant NDM-1 K. pneumoniae R3934; assay: Sepsis infection model in mice; assay type: in vivo; conditions: CD-1 mice, i.p., 10 mg/kg alone, 1 h and 24 h post-infection
Procedure: Sepsis infection model: About six-week-old, female CD-1 mice (weight, ˜19-24 g) were used for the experiments. Mice were infected intraperitoneally (i.p.) with a dose of ˜10^6 CFU/mouse of meropenem-resistant NDM-1 K. pneumoniae R3934. Then, mice were treated twice at 1 h and 24 h post-infection with a specified i.p. dose of either saline, meropenem (10 mg/kg), compound 4 (10 mg/kg), or a combination of compound 4 (10 mg/kg) and meropenem (10 mg/kg). Here, colistin (5 mg/kg) was used as a positive control. Mice were euthanized after 48 h post-infection and then liver, spleen, kidney and lungs were collected to find out the bacterial density in these organs. Organs were placed into 10 ml sterile saline on ice, and then homogenized. The dilutions of the homogenate were plated onto agar plates, which were incubated for 24 h at 37° C. The bacterial titer was expressed as log10 CFU/g of organ weight.

[2] = tested on: NDM-1 expressing Klebsiella pneumoniae R3934; assay: microbe, parasite or virus in culture; assay type: cell-based; conditions: for MIC: Klebsiella pneumoniae
Procedure: (§1) Test compounds were assayed in a micro-dilution broth format. Stock solutions were made by serially diluting the compounds using autoclaved millipore water or broth media. The antibacterial activity of the compounds was determined against gram positive bactreia like methicillin-resistant S. aureus (MRSA), vancomycin-intermediate-resistant S. aureus (VISA), vancomycin-sensitive E. faecium (VSE), vancomycin-resistant E. faecalis and vancomycin-resistant E. faecium (VRE). Antibacterial activity of dipicolyl-vancomycin conjugate conjugate (4) in combination with meropemem was determined against gram-negative bacteria such as K. pneumoniae ATCC BAA2146, clinical isolates K. pneumoniae R3949, K. pneumoniae R3934, E. coli R3336 and A. baumanii R676. Bacteria, to be tested, were grown for about 10 h in the suitable media, MRSA, VISA and gram negative bacteria were grown in Yeast-dextrose broth (about 1 g of beef extract, about 2 g of yeast extract, about 5 g of peptone and about 5 g of NaCl in about 1000 mL of sterile distilled water (pH-7)). For solid media, about 5% agar was used along with above mentioned composition. VSE and VRE were cultured in Brain Heart Infusion broth (Himedia). The bacterial samples were freeze dried and stored at −80° C. About 5 μL of these stocks were added to about 3 mL of the nutrient broth or Brain Heart Infusion broth and the culture was grown for about 6 h at about 37° C. prior to the experiments. This 6 h grown culture gives about 10^9 cfu/mL and this was determined by spread plating method. The 6 h grown culture was diluted to give effective cell concentration of about 10^5 cfu/mL which was then used for determining MIC. Compounds were serially diluted, in sterile water (2-fold dilution is employed) in a way that the working concentration was about 10 μM for MRSA, and VSE while for VRE, VISA and gram negative bacteria; it was about 100 μM. About 50 μL of these serial dilutions were added to the wells of 96 well plate followed by the addition of about 150 μL of bacterial solution. The plates were then incubated at about 37° C., 150 rpm in the incubator and O.D at 620 nm was recorded at an interval of about 24 h using TECAN (Infinite series, M200 pro) Plate Reader. Each concentration had triplicate values and the whole experiment was done at least twice and the MIC value was determined by taking the average of triplicate O.D. values for each concentration and plotting it against concentration. The data was then subjected to sigmoidal fitting.
(§2) Then, the antibacterial activities of Dipicolyl-vancomycin conjugate (4) is checked in combination with meropenem against New-Delhi β-lactamase producing gram negative bacteria such as K. pneumoniae BAA2146, clinical isolates K. pneumoniae R3949, K. pneumoniae R3934, E. coli R3336 and A. baumanii R676. […] Further we have also evaluated the antibacterial activity of dipicolyl-vancomycin conjugate (4) in presence of zinc sulphate, wherein it forms dipicolyl-vancomycin-zinc complex (5).

[3] = tested on: NDM-1 expressing Klebsiella pneumoniae R3949; assay: microbe, parasite or virus in culture; assay type: cell-based; conditions: for MIC: Klebsiella pneumoniae
Procedure: as §1, §2

[4] = tested on: NDM-1 expressing Escherichia coli R3336; assay: microbe, parasite or virus in culture; assay type: cell-based; conditions: for MIC: Escherichia coli
Procedure: as §1, §2

[5] = tested on: NDM-1 expressing Klebsiella pneumoniae ATCC BAA2146; assay: microbe, parasite or virus in culture; assay type: cell-based; conditions: for MIC: Klebsiella pneumoniae
Procedure: as §1, §2

MRSA = assay: Resistance development study, serial passages; assay type: cell-based, S. aureus; conditions: passaged at MIC/2
Procedure: MIC values of the compound 4 and vancomycin were determined against MRSA as described above. For the next day MIC experiment, the bacterial dilution was made by using the bacteria from sub-MIC concentration of the compounds (at MIC/2). Then, the concentration of this bacteria was adjusted to ˜10^5 CFU/mL based on OD600 and subjected to next MIC assay. After a 24 h incubation period, again bacterial dilution was prepared by using the bacterial suspension from sub-MIC concentration of the compound (at MIC/2) and assayed for another MIC experiment. The process was repeated for 25 passages, and the fold increase in MIC was determined. […] Thus bacteria were unable in acquiring resistance to this compound and this emphasizes the longevity of such compounds in clinics.

[6] = tested on: Vancomycin-resistant E. faecalis (VanA, ATCC 51575); assay: MIC, micro-dilution broth, VREs; assay type: cell-based
Procedure: as §1

[7] = tested on: Vancomycin intermediate resistant S. aureus; assay: MIC, micro-dilution broth, VISA; assay type: cell-based
Procedure: as §1

[8] = tested on: Vancomycin-sensitive E. faecium (ATCC 19634); assay: MIC, micro-dilution broth, VSEm; assay type: cell-based
Procedure: as §1

NDM-1 enzyme = biological target: T1, NDM-1 enzyme (Klebsiella pneumoniae, UniProt C7C422); assay: NDM-1 enzyme inhibition, nitrocefin substrate; assay type: biochemical; conditions: nitrocefin as substrate
T1 construct: made in house; host or cells: E. coli BL21 (DE3)
Procedure: The NDM-1 was produced by E. coli BL21 (DE3) carrying pET30a-NDM-1 in LB medium. Initially, the purified NDM-1 enzyme (5 nM, HEPES buffer, pH-7.4) was supplemented with 20 μM ZnSO4 for 30 min. Next, the enzyme was pre-incubated with the inhibitor (compound 4) for 20 min prior to the initiation of the assay by the addition of the substrate (Nitrocefin, 30 μM). Assays were read in 96-well microplate format at 490 nm (absorbance) using TECAN plate reader (Infinite Pro.) at 37° C. IC50s were deduced from a plot of percent loss of activity versus inhibitor concentration.

[9] = tested on: Vancomycin-resistant E. faecium (VanA, ATCC 51559); assay: MIC, micro-dilution broth, VREm; assay type: cell-based
Procedure: as §1

[10] = tested on: Methicillin-resistant S. aureus (ATCC 33591); assay: MIC, micro-dilution broth, MRSA; assay type: cell-based
Procedure: as §1

[11] = tested on: meropenem-resistant NDM-1 bacteria; assay: Combination with meropenem against NDM-1 gram negative bacteria; assay type: cell-based; conditions: in combination with meropenem
Procedure: (§3) Test compounds were assayed in a micro-dilution broth format. Stock solutions were made by serially diluting the compounds using autoclaved millipore water or broth media. The antibacterial activity of the compounds was determined against gram positive bactreia like methicillin-resistant S. aureus (MRSA), vancomycin-intermediate-resistant S. aureus (VISA), vancomycin-sensitive E. faecium (VSE), vancomycin-resistant E. faecalis and vancomycin-resistant E. faecium (VRE). Antibacterial activity of dipicolyl-vancomycin conjugate conjugate (4) in combination with meropemem was determined against gram-negative bacteria such as K. pneumoniae ATCC BAA2146, clinical isolates K. pneumoniae R3949, K. pneumoniae R3934, E. coli R3336 and A. baumanii R676. Bacteria, to be tested, were grown for about 10 h in the suitable media, MRSA, VISA and gram negative bacteria were grown in Yeast-dextrose broth (about 1 g of beef extract, about 2 g of yeast extract, about 5 g of peptone and about 5 g of NaCl in about 1000 mL of sterile distilled water (pH-7)). […] This 6 h grown culture gives about 10^9 cfu/mL and this was determined by spread plating method. […] The plates were then incubated at about 37° C., 150 rpm in the incubator and O.D at 620 nm was recorded at an interval of about 24 h using TECAN (Infinite series, M200 pro) Plate Reader. Each concentration had triplicate values and the whole experiment was done at least twice and the MIC value was determined by taking the average of triplicate O.D. values for each concentration and plotting it against concentration. […]
as §2

[12] = tested on: Staphylococci (MRSA and VISA) and Enterococci (VREm and VREs); assay: Antibacterial activity, gram positive panel; assay type: cell-based; conditions: VSEm
Procedure: as §3, with “R676.” for “R676. Bacteria, to be tested, were grown for about 10 h in the suitable media, MRSA, VISA and gram negative bacteria were grown in Yeast-dextrose broth (about 1 g of beef extract, about 2 g of yeast extract, about 5 g of peptone and about 5 g of NaCl in about 1000 mL of sterile distilled water (pH-7)).”

VREs ATCC 51575 = assay type: in vivo, E. faecalis; conditions: CD-1 mice, 12 mg/kg i.p. once daily, three doses
Procedure: Female CD-1 mice 6 to 8 weeks of age and weighing 20 to 25 g were used in this study. On day −7, all mice were injected intravenously (i.v.) with 0.2 mL of 0.2% λ-carrageenan to increase their susceptibility to bacterial renal infection. λ-Carrageenan increases mice susceptibility to renal infection following i.v. injection, possibly by forming a lattice structure in renal tissue and forming a support structure for bacterial attachment and growth. Bacterial strains that fail to cause renal infection in normal mice produce significant renal infections in λ-carrageenan-treated mice. On day 0, all mice were injected i.v. with 0.2 mL of the bacterial culture (VREs ATCC 51575, 10^8 CFU/mouse) through the tail vein. Four hours after the bacterial inoculation, mice were treated intraperitoneally (i.p.) with vancomycin, compound 4 and linezolid at 12 mg/kg of body weight or 0.2 mL of saline (0.9% NaCl) control (n=5). All the test compounds or saline were administered once daily for an additional two consecutive days for a total of three doses. All mice were sacrificed on day 3. Both kidneys from each mouse were removed aseptically and homogenized in 10 mL of saline. The dilutions of the homogenate were plated onto sheep blood agar plates, which were incubated overnight at about 37° C. The bacterial titer was expressed as log10 CFU/g of kidney weight.

[13] = read-out: MIC of Meropenem in absence of compound 4
[14] = read-out: MIC of Meropenem in absence of compound 5

T1 sequence (C7C422 29-270, looked up, species assumed): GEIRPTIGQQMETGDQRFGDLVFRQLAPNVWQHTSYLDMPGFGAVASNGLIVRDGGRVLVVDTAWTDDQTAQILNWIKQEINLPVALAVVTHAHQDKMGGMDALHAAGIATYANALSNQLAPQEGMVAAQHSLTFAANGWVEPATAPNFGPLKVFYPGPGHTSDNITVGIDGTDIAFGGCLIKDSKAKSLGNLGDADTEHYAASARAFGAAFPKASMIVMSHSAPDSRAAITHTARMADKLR

## C[C@@H](O)[C@H]1C(=O)N2C(C(=O)O)=C(S[C@@H]3CN[C@H](C(=O)N(C)C)C3)[C@H](C)[C@H]12 [Meropenem, meropenem, reference compound]
[1]
  in-vivo antibacterial activity, bacterial titer in organs: did not show any activity
[2]; [13]
  MIC: > 100 µg/mL
[2]; [14]
  MIC: > 100 µg/mL
[3]; [13]
  MIC: > 100 µg/mL
[3]; [14]
  MIC: > 100 µg/mL
[4]; [13]
  MIC: > 100 µg/mL
[4]; [14]
  MIC: > 100 µg/mL
[5]; ATCCBAA2146, read-out: MIC of Meropenem in absence of compound 4
  MIC: > 100 µg/mL
[5]; ATCCBAA2146, read-out: MIC of Meropenem in absence of compound 5
  MIC: > 100 µg/mL

## CN[C@H](CC(C)C)C(=O)N[C@H]1C(=O)N[C@@H](CC(N)=O)C(=O)N[C@H]2C(=O)N[C@H]3C(=O)N[C@H](C(=O)N[C@H](C(=O)O)c4cc(O)cc(O)c4-c4cc3ccc4O)[C@H](O)c3ccc(c(Cl)c3)Oc3cc2cc(c3O[C@H]2OC(CO)[C@H](O)C(O)C2O[C@H]2C[C@@](C)(N)[C@@H](O)C(C)O2)Oc2ccc(cc2Cl)[C@H]1O (stereo partly shown) [Vancomycin, reference compound]
MRSA
  fold increase in MIC after 25 serial passages: ~16 fold
  passages after which the MIC value started increasing: 7 passages
[6]; Enterococcus faecalis, ATCC51575
  MIC: 250 µM
[7]; Staphylococcus aureus
  MIC: 13 µM
[8]; Enterococcus faecium, ATCC19634
  MIC: 0.6 µM
NDM-1 enzyme
  effect on the activity of NDM-1: no effect
[9]; Enterococcus faecium, ATCC51559
  MIC: 750 µM
[10]; Staphylococcus aureus
  MIC: 0.63 µM

## NCCCCCCN(Cc1ccccn1)Cc1ccccn1 [Compound 3, dipicolyl-1,6-hexadiamine]
[6]; VREs
  MIC: >100 µM
[11]
  resensitization of meropenem-resistant NDM-1 bacteria to meropenem (synergistic activity): did not show any appreciable synergistic activity
[7]
  MIC: >100 µM
[12]
  antibacterial activity against any of the bacteria tested: did not show any activity
[8]; VSEm
  MIC: >100 µM
[9]; VREm
  MIC: >100 µM
[10]; MRSA
  MIC: >100 µM

## CC(=O)NC[C@H]1CN(c2ccc(N3CCOCC3)c(F)c2)C(=O)O1 [Linezolid, linezolid, reference compound]
VREs ATCC 51575
  reduction of bacterial titer from infected kidneys in comparison to vancomycin: reduced bacterial titer from the infected kidneys more effectively
VREs ATCC 51575; kidneys
  CFU reduction compared to vehicle treated control (saline): ~4 log10 CFU

## Dipicolyl-Vancomycin-Zinc Complex [Compound 5]
[6]; VREs
  MIC: 1.5 µM
[11]
  resensitization of meropenem-resistant NDM-1 bacteria to meropenem (synergistic activity): did not restore the activity of meropenem
[7]
  MIC: 0.3 µM
[8]; VSEm
  MIC: 0.31 µM
[2]; Klebsiella pneumoniae R3934
  MIC of Meropenem in presence of compound 5 at 12 μM: >100 µg/mL
[3]; Klebsiella pneumoniae R3949
  MIC of Meropenem in presence of compound 5 at 12 μM: >100 µg/mL
[4]; Escherichia coli R3336
  MIC of Meropenem in presence of compound 5 at 12 μM: >100 µg/mL
[5]; Klebsiella pneumoniae ATCC BAA2146
  MIC of Meropenem in presence of compound 5 at 12 μM: >100 µg/mL
[9]; VREm
  MIC: 0.6 µM
[9]; VREm (VRE), ratio of MIC values
  fold more active than vancomycin: about 1250 fold
[10]; MRSA
  MIC: 0.3 µM
